Data published in patent US20170071879A1, “PROTOTYPICAL ANALGESIC PROFILE OF 3,3-DIPHENYL-N-(1-PHENYLETHYL)PROPAN-1-AMINE (FENDILINE)” (priority 2015, published 2017).
Read-outs that look alike come from different tables or passages of the source.

Columns and labels:
[1] = test system: Paclitaxel induced neuropathic sensitization (PINS); assay: Paclitaxel induced neuropathic sensitization (PINS) in the formalin test of pain; type: in vivo; details: mice; for suppression of PINS: 35-40 mn central sensitization phase, formalin induced pain
Procedure: Fendiline at 1 or 5 mg/kg, per os (po) suppressed the PINS by 75% or 63%, respectively, in the 35-40 mn central sensitization phase, in the formalin induced pain, in mice (Compound A1).
When fendiline was administered at 25 or 75 mg/kg (po) per os (po), PINS diminished by 181% or 275%, respectively in mice (Compound A2), i.e., less pain reaction than the control which hadn't receive Paclitaxel.

brain dopamine turnover [2] = assay: brain dopamine turnover, mice; type: in vivo; details: 5-50 mg/kg ip
Description: (§1) It could be co-administered with the μ-ORAs amplifying their analgesic activity and, more importantly, protecting against the opioid dependence of the μ-ORAs.

brain dopamine turnover [3] = details: mice; cited from earlier work
[4] = test system: Pentylenetetrazole (PTZ) convulsions; assay: Pentylenetetrazole (PTZ) convulsions; type: in vivo; details: mice
brain dopamine turnover [5] = assay: brain dopamine turnover, rats; type: in vivo; details: 5-50 mg/kg ip
Description: as §1

[6] = test system: Maximal Electrochoc Seizures (MES); assay: Maximal Electrochoc Seizures (MES); type: in vivo; details: mice
brain dopamine turnover [7] = details: rats; cited from earlier work
sigma-1 = sigma-1 (Homo sapiens, UniProt Q99720); assay: sigma-1 affinity; type: binding
Chain of sigma-1 (Q99720 whole entry): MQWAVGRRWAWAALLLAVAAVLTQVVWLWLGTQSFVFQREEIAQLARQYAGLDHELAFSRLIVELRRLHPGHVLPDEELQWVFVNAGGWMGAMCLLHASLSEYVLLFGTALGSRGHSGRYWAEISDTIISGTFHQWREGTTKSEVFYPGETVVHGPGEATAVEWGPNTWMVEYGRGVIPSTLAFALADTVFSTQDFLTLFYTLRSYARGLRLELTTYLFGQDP

sigma-2 receptors = sigma-2 receptors (Homo sapiens, UniProt Q5BJF2); assay: sigma-2 receptor affinity; type: binding
Chain of sigma-2 receptors (Q5BJF2 whole entry): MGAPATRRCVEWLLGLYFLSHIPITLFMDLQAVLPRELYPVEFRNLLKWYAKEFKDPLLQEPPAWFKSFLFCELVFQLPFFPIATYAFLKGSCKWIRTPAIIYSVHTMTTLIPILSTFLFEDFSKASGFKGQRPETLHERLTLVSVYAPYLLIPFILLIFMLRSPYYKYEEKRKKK

For `CC(NCCC(c1ccccc1)c1ccccc1)c1ccccc1` (stereo not drawn) [Fendiline, 3,3-diphenyl-N-(1-phenylethyl) propan-1-amine], the “suppression of PINS” value ([1]; 1 mg/kg po) was 75%, the “suppression of PINS” value ([1]; 5 mg/kg po) was 63% and the PINS diminished ([1]; 25 mg/kg po) was 181%. The PINS diminished ([1]; 75 mg/kg po) was 275%, the “brain DA turnover” value (brain dopamine turnover [2]) was “decrease of the DA turnover” and the brain dopamine turnover (brain dopamine turnover [3]) was “decrease of the brain dopamine turnover”. The “anticonvulsive activity in PTZ convulsions” value [4] was “absence of anticonvulsive activities”, the “brain DA turnover” value (brain dopamine turnover [5]) was “decrease of the DA turnover” and the “anticonvulsive activity in MES” value [6] was “absence of anticonvulsive activities”. The brain dopamine turnover (brain dopamine turnover [7]) was “decrease of the brain dopamine turnover”, the Ki (sigma-1) was 14 to 18 nM and the Ki (sigma-2 receptors) was 730 to 850 nM.
